The text below walks through data of patent publication US12629374B2, “Antimalarial agents” (Merck Sharp & Dohme LLC, priority 2020, dated 2026).

The test system of the first experiment is ring stage parasites. Briefly: Parasite growth potency assay, 72 hours, LDH readout. The conditions noted are these: 72 h, parasite growth measured by LDH assay after 72 hours at 37° C.; 0.7% rings, 2% haematocrit; read-out: EC50. It counts as cell-based. The protocol:
The parasite stock was maintained at 4% haematocrit in RPMI-Hepes media buffered with sodium bicarbonate and supplemented with 5% heat inactivated human serum and 0.5% albumax.
On the day of assay set up, a blood smear of the parasite culture was Giemsa stained and counted. The parasitemia was adjusted to 0.7% rings and the haematocrit was diluted to 2% in RPMI-Hepes media buffered with sodium bicarbonate and supplemented with 5% heat inactivated human serum and 0.5% albumax. 30 ul of diluted parasites are then added into 10 ul of media+compound in pre-prepared Greiner TC assay plates. Parasite assay plates were placed in gassed humidified boxes in single layer and allowed to incubate at 37° C. for 72 hours. After 72 hours growth, assay plates are sealed with parafilm and frozen flat, in single file at −80° C. overnight. On the following day, assay plates are allowed to thaw at room temperature for 4 hours to which an LDH assay is performed to measure parasite growth.
Regarding `CCC1(CC)CC(=O)N(Cc2cccc(C(=O)N[C@H]3CC(C)(C)Oc4cccc(F)c43)c2)C(=N)N1` (stereo in doubt) [Example 94A, [4,4-diethyl-1-[[3-[(5-fluoro-2,2-dimethyl-chroman-4-yl)carbamoyl]phenyl]methyl]-6-oxo-hexahydropyrimidin-2-ylidene]ammonium; 2,2,2-trifluoroacetate], the EC50 was determined as 0.4 nM.

On to `CCC1(CC)CC(=O)N(Cc2cccc(C(=O)N[C@@H]3CC(C)(C)Oc4cccc(F)c43)c2)C(=N)N1` (stereo in doubt) [Example 94B, [4,4-diethyl-1-[[3-[(5-fluoro-2,2-dimethyl-chroman-4-yl)carbamoyl]phenyl]methyl]-6-oxo-hexahydropyrimidin-2-ylidene]ammonium; 2,2,2-trifluoroacetate], for which the EC50 came out at 72.5 nM.

`CCC1(CC)CC(=O)N(Cc2cccc(C(=O)N[C@H]3CC(C)(C)Oc4c3ccc(F)c4F)c2)C(=N)N1` (stereo in doubt) [Example 117, [1-[[3-[(7,8-difluoro-2,2-dimethyl-chroman-4-yl)carbamoyl]phenyl]methyl]-4,4-diethyl-6-oxo-hexahydropyrimidin-2-ylidene]ammonium; 2,2,2-trifluoroacetate]: the concentration for a half-maximal effect (EC50) is 1.5 nM.

`CCC1(CC)CC(=O)N(Cc2cccc(C(=O)N[C@@H]3c4ccccc4CC3(C)O)c2)C(=N)N1` (stereo in doubt) [Example 121, 3-[(4,4-diethyl-2-imino-6-oxo-hexahydropyrimidin-1-yl)methyl]-N-(2-hydroxy-2-methyl-indan-1-yl)benzamide]: the concentration for a half-maximal effect (EC50) was 8.6 nM.

Consider `CCC1(CC)CC(=O)N(Cc2cccc(C(=O)N[C@@H]3c4ccccc4OCC3O)c2)C(=N)N1` (stereo in doubt) [Example 126B, 3-[(4,4-diethyl-2-imino-6-oxo-hexahydropyrimidin-1-yl)methyl]-N-(3-hydroxychroman-4-yl)benzamide], for which the EC50 is 19.4 nM.

For `CCC1(CC)CC(=O)N([C@H](CCOC)c2cccc(C(=O)N[C@@H]3c4ccccc4OC(C)(C)[C@H]3O)c2)C(=N)N1` (stereo in doubt) [Example 128, [4,4-diethyl-1-[1-[3-[(3-hydroxy-2,2-dimethyl-chroman-4-yl)carbamoyl]phenyl]-3-methoxy-propyl]-6-oxo-hexahydropyrimidin-2-ylidene]ammonium; 2,2,2-trifluoroacetate], the EC50 was found to be 1.1 nM.

With `CCC1(CC)CC(=O)N([C@H](CCOC)c2cc(F)cc(C(=O)N[C@@H]3c4ccccc4OC(C)(C)[C@H]3O)c2)C(=N)N1` (stereo in doubt) [Example 129A, [4,4-diethyl-1-[1-[3-fluoro-5-[(3-hydroxy-2,2-dimethyl-chroman-4-yl)carbamoyl]phenyl]-3-methoxy-propyl]-6-oxo-hexahydropyrimidin-2-ylidene]ammonium; 2,2,2-trifluoroacetate], the EC50 came to 0.8 nM.

For the molecule `CCC1(CC)CC(=O)N([C@H](CCOC)c2cc(F)cc(C(=O)N[C@H]3c4ccccc4OC(C)(C)[C@@H]3O)c2)C(=N)N1` (stereo in doubt) [Example 129B, [4,4-diethyl-1-[1-[3-fluoro-5-[(3-hydroxy-2,2-dimethyl-chroman-4-yl)carbamoyl]phenyl]-3-methoxy-propyl]-6-oxo-hexahydropyrimidin-2-ylidene]ammonium; 2,2,2-trifluoroacetate], the EC50 is 87 nM.

As to `CCC1(CC)CC(=O)N(Cc2cccc(C(=O)N[C@@H]3c4ccccc4OCC3(C)O)c2)C(=N)N1` (stereo in doubt) [Example 131A, 3-[(4,4-diethyl-2-imino-6-oxo-hexahydropyrimidin-1-yl)methyl]-N-(3-hydroxy-3-methyl-chroman-4-yl)benzamide], the EC50 came out at 6.6 nM.

Regarding `CCC1(CC)CC(=O)N(Cc2cccc(C(=O)N[C@H]3c4ccccc4OCC3(C)O)c2)C(=N)N1` (stereo in doubt) [Example 131B, 3-[(4,4-diethyl-2-imino-6-oxo-hexahydropyrimidin-1-yl)methyl]-N-(3-hydroxy-3-methyl-chroman-4-yl)benzamide], the EC50 came to 20.2 nM.

`CCC1(CC)CC(=O)N(Cc2cc(C(=O)N[C@@H]3c4ccccc4OC(C)(C)[C@H]3O)ccn2)C(=N)N1` (stereo in doubt) [Example 133, [4,4-diethyl-1-[[4-[(3-hydroxy-2,2-dimethyl-chroman-4-yl)carbamoyl]pyridin-1-ium-2-yl]methyl]-6-oxo-hexahydropyrimidin-2-ylidene]ammonium; 2,2,2-trifluoroacetate]: the concentration giving a half-maximal response (EC50) was 3.3 nM.

In the case of `CCC1(CC)CC(=O)N([C@H](CCN2CCOCC2)c2cccc(C(=O)NC3CC(C)(C)Oc4ccc(F)cc43)c2)C(=N)N1` (stereo in doubt) [Example 137, [4,4-diethyl-1-[1-[3-[(6-fluoro-2,2-dimethyl-chroman-4-yl)carbamoyl]phenyl]-3-morpholin-4-ium-4-yl-propyl]-6-oxo-hexahydropyrimidin-2-ylidene]ammonium; 2,2,2-trifluoroacetate], the EC50 is 0.8 nM.

As to `CCC1(CC)CC(=O)N([C@H](CCOC)c2cccc(C(=O)NC3c4ccccc4CC3(C)O)c2)C(=N)N1` (stereo in doubt) [Example 142A, 3-[1-(4,4-diethyl-2-imino-6-oxo-hexahydropyrimidin-1-yl)-3-methoxy-propyl]-N-(2-hydroxy-2-methyl-indan-1-yl)benzamide], the concentration for a half-maximal effect (EC50) came out at 2.1 nM.

Turning to `CCC1(CC)CC(=O)N([C@H](CCOC)c2cccc(C(=O)N[C@@H]3c4ccccc4OCC3(C)O)c2)C(=N)N1` (stereo in doubt) [Example 143A, 3-[1-(4,4-diethyl-2-imino-6-oxo-hexahydropyrimidin-1-yl)-3-methoxy-propyl]-N-(3-hydroxy-3-methyl-chroman-4-yl)benzamide], the half-maximal effective concentration (EC50) was determined as 2.2 nM.

Regarding `CCC1(CC)CC(=O)N(Cc2cccc(C(=O)N[C@@H]3c4cc(F)ccc4OC(C)(C)[C@H]3O)c2)C(=N)N1` (stereo in doubt) [Example 147, [4,4-diethyl-1-[[3-[(6-fluoro-3-hydroxy-2,2-dimethyl-chroman-4-yl)carbamoyl]phenyl]methyl]-6-oxo-hexahydropyrimidin-2-ylidene]ammonium; 2,2,2-trifluoroacetate], the EC50 stood at 1 nM.

As for `CCC1(CC)CC(=O)N(Cc2cc(F)cc(C(=O)N[C@@H]3c4cc(F)ccc4OC(C)(C)[C@H]3O)c2)C(=N)N1` (stereo in doubt) [Example 148, [4,4-diethyl-1-[[3-fluoro-5-[(6-fluoro-3-hydroxy-2,2-dimethyl-chroman-4-yl)carbamoyl]phenyl]methyl]-6-oxo-hexahydropyrimidin-2-ylidene]ammonium; 2,2,2-trifluoroacetate], the EC50 was determined as 1 nM.

`CCC1(CC)CC(=O)N(Cc2cccc(C(=O)N[C@@H]3c4ccccc4OC(C)(C)C3(C)O)c2)C(=N)N1` (stereo in doubt) [Example 184, 3-[(4,4-diethyl-2-imino-6-oxo-hexahydropyrimidin-1-yl)methyl]-N-(3-hydroxy-2,2,3-trimethyl-chroman-4-yl)benzamide]: the 50% effective concentration (EC50) was determined as 1.5 nM.

`CC1(C)CC(=O)N(Cc2cccc(C(=O)N[C@@H]3c4ccccc4OC(C)(C)C3(C)O)c2)C(=N)N1` (stereo in doubt) [Example 185, N-(3-hydroxy-2,2,3-trimethyl-chroman-4-yl)-3-[(2-imino-4,4-dimethyl-6-oxo-hexahydropyrimidin-1-yl)methyl]benzamide]: the EC50 turned out to be 62.5 nM.

On to `CCC1(CC)CC(=O)N(Cc2cccc(C(=O)N[C@@H]3c4ccccc4OC3(C)C)c2)C(=N)N1` (stereo in doubt) [Example 186, [1-[[3-[(2,2-dimethyl-3H-benzofuran-3-yl)carbamoyl]phenyl]methyl]-4,4-diethyl-6-oxo-hexahydropyrimidin-2-ylidene]ammonium; 2,2,2-trifluoroacetate], for which the EC50 came to 10.9 nM.

The experiment is the same for the next values; noted with them: parasite growth measured by LDH assay after 72 hours at 37° C.; 0.7% rings, 2% haematocrit; read-out: EC50.
On to `CCC1(CC)CC(=O)N([C@H](CCOC)c2cccc(C(=O)N[C@@H]3c4ccccc4OCC3(C)O)c2)C(=N)N1` (stereo in doubt) [Example 143B, 3-[1-(4,4-diethyl-2-imino-6-oxo-hexahydropyrimidin-1-yl)-3-methoxy-propyl]-N-(3-hydroxy-3-methyl-chroman-4-yl)benzamide], for which the half-maximal effective concentration (EC50) came out at 1.8 nM.

`CCC1(CC)CC(=O)N([C@H](CCOC)c2cc(F)cc(C(=O)N[C@@H]3c4ccccc4CC3(C)O)c2)C(=N)N1` (stereo in doubt) [Example 144B, 3-[1-(4,4-diethyl-2-imino-6-oxo-hexahydropyrimidin-1-yl)-3-methoxy-propyl]-5-fluoro-N-(2-hydroxy-2-methyl-indan-1-yl)benzamide]: the half-maximal effective concentration (EC50) was found to be 1.9 nM.

In the case of `CCC1(CC)CC(=O)N([C@H](CCOC)c2cc(F)cc(C(=O)N[C@@H]3c4ccccc4CC3(C)O)c2)C(=N)N1` (stereo in doubt) [Example 144D, 3-[1-(4,4-diethyl-2-imino-6-oxo-hexahydropyrimidin-1-yl)-3-methoxy-propyl]-5-fluoro-N-(2-hydroxy-2-methyl-indan-1-yl)benzamide], the EC50 worked out at 0.9 nM.

The same experiment, now with this note: parasite growth measured by LDH assay after 72 hours at 37° C.; 0.7% rings, 2% haematocrit; trifluoroacetate; read-out: EC50.
As to `CCC1(CC)CC(=O)N(Cc2cccc(C(=O)N[C@H]3C[C@H](C(F)(F)F)Oc4ccccc43)c2)C(=N)N1` (stereo in doubt) [Example 97, [4,4-diethyl-6-oxo-1-[[3-[[2-(trifluoromethyl)chroman-4-yl]carbamoyl]phenyl]methyl]hexa-hydropyrimidin-2-ylidene]ammonium; 2,2,2-trifluoroacetate], the EC50 was 10.6 nM.

As usually defined, the EC50 is the concentration giving half of the maximal effect.
